Reference: US20180207164A1, “COMBINATION THERAPIES FOR TREATING CANCERS” (GILEAD SCIENCES, INC., priority 2015, published 2018)

Key:
[1] = test system: primary chronic lymphocytic leukemia (CLL) cells; assay: Apoptosis induction in primary CLL cells with αIgM/αIgG/αCD40 stimulation, without HS-5 co-culture (Annexin V/Live-Dead flow cytometry); type: cell-based, human; settings: for Maximal % Apoptosis: HS-5 (no co-culture), 66-72 hr post-compound addition, duplicate wells; for apoptosis observed in all CLL samples tested: at 30 nM; for average maximal proportion of apoptotic cells: primary αIgM/αIgG/αCD40 stimulated CLL cells
Method: (§1) The HS-5 human stromal cell line was obtained from ATCC (American Tissue Type Collection). Cells were maintained in lymphocyte growth medium (LGM): RPMI-1640 supplemented with 10% FBS, 1% penicillin-streptomycin, 10 mM HEPES, 1 mM sodium pyruvate, 55 μM β-mercaptoethanol, and 2 mM GlutaMax. With informed consent, whole blood was obtained from CLL subjects.
(§2) Peripheral blood mononuclear cells (PBMCs) were prepared from human whole blood obtained from CLL patients by Ficoll-separation in CPT tubes according to manufacturer's directions (Becton Dickinson). Isolated PBMCs were cryopreserved in freezing medium (50% IMDM, 40% FBS, and 10% DMSO) and held in the gas phase of liquid nitrogen until use. One day prior to plating of primary CLL cells, wells of a U-bottom 96-well plate were coated with 3.0×10^4 HS-5 cells and allowed to adhere overnight in a humidified 37° C. incubator supplemented with 5% CO2. The % CD5+/CD19^+ cells isolated were quantified via FACS staining.
(§3) Frozen primary CLL PBMCs were thawed, washed once in LGM, and rested for 3-5 hours in LGM at 37° C. prior to plating. Cells were then centrifuged at room temperature for 10 minutes and resuspended at 1.0-2.5×10^5 cells/mL in LGM for plating. Assay wells were set up in U-bottom 96-well tissue culture plates in the absence or presence of HS-5 co-culture. Compounds were diluted as described below. Assay plates were incubated for 1 hour prior to stimulation with αIgM/αIgG (7.8 μg/well) and αCD40 (4 μg/well). Positive and negative controls were set up. Cells were incubated for 66-72 hours in a 37° C. CO2 incubator and assayed for apoptosis.
(§4) Compounds were diluted from 10 mM DMSO stock solutions. Compound combinations were prepared by transferring 2 μl each of the appropriate working compound solutions or vehicle to wells of a 96-well polypropylene plate. A daughter plate was made by 100× dilution into media. The final assay plate was made by 10× dilution into the final assay plate described above. The final DMSO concentration was 0.1%.
(§5) Cells were transferred to a deep well (2 mL) assay block and rinsed with 1 mL cation free PBS (PBS^−/−). Cells were resuspended in Invitrogen's aqua Live/Dead reagent according to manufacturer's instructions and incubated 30 minutes on ice. Aqua Live/Dead was quenched with an equal volume of PBS^+/+ and 4% FBS (FACS buffer). Cells were centrifuged and labeled with αCD5-PE, αCD19-BV421 and AnnexinV-APC in a total volume of 80 μL and incubated 30 minutes on ice. After labeling, cells were rinsed twice in FACS buffer and then fixed with BD Fixation buffer for 30 minutes on ice. Cells were rinsed twice with FACS buffer and analyzed.
(§6) The percentage of CD5^+/CD19^+ cells was quantified in the PBMCs to provide an assessment of the malignant cell population in each sample. To evaluate apoptosis, flow cytometric sampling of 50 μL cell suspensions (5,000-25,000 total events) were collected on a BD FACS Canto II instrument using a high throughput screen (HTS) autosampler. The CD5^+CD19^+ population was gated, and data were collected for the Annexin V^−/Live-Dead^−, AnnexinV^+/Live-Dead^−, AnnexinV^+/Live-Dead^+, and Annexin V^−/Live-Dead^+ CLL populations.
(§7) Annexin V^+/Live-Dead^− or Annexin V^−/Live-Dead^+ cells were gated and percentages of positive cells in each population were recorded for each well and data were extracted to a flow cytometry standard (fcs) file. Average percentages of Annexin V^+/Live-Dead^− and Annexin V^−/Live-Dead^+ were determined.
EC50 values were calculated based on log concentration of drug and percent Annexin V^+/Live-Dead^− and Annexin V^−/Live-Dead^+ cells using a 4 parameter nonlinear regression algorithm in Prism 6.01 of the GraphPad software (San Diego, Calif. USA, www.graphpad.com). Each run generated a single EC50 based on duplicate well values at each compound dilution. EC50 values and Hill slopes generated from each curve fit were reported. […]

[2] = test system: primary CLL cells + HS-5 co-culture; assay: Apoptosis induction in primary CLL cells with αIgM/αIgG/αCD40 stimulation in HS-5 stromal cell co-culture; type: cell-based, human; settings: for Maximal % Apoptosis: +HS-5, 1 μM compound, 66-72 hr post-compound addition, duplicate wells
Method: as §1, §2
One day prior to plating of primary CLL cells, wells of a U-bottom 96-well plate were coated with 3.0×10^4 HS-5 cells and allowed to adhere overnight in a humidified 37° C. incubator supplemented with 5% CO2.
as §3, §4, §5, §6, §7
EC50 values were calculated based on log concentration of drug and percent Annexin V^+/Live-Dead^− and Annexin V^−/Live-Dead^+ cells using a 4 parameter nonlinear regression algorithm in Prism 6.01 of the GraphPad software (San Diego, Calif. USA, www.graphpad.com). […]

[3] = test system: CLL; settings: human, in vivo; cited from earlier work

Row | EC50 ([1]; Homo sapiens, CLL cell, primary CLL cells stimulated with αIgM/αIgG/αCD40, N=4, 66-72 h, read-out: geometric mean EC50 (±standard deviation) for induction of apoptosis) [nM] | SMILES | average maximal apoptosis ([1]; 1 μM compound, αIgM/αIgG/αCD40 stimulated, 5 donors) [%] | Maximal % Apoptosis ([1]; Donor 3, 1 μM compound) [%] | Maximal % Apoptosis ([1]; Donor 4, 1 μM compound) [%] | Maximal % Apoptosis ([1]; Donor 5, 1 μM compound) [%] | Maximal % Apoptosis ([1]; Donor 6, 1 μM compound) [%] | Maximal % Apoptosis ([1]; Donor 10, 1 μM compound) [%] | Maximal % Apoptosis ([2]; Donor 3) [%] | Maximal % Apoptosis ([2]; Donor 4) [%] | apoptosis levels versus background in the presence of HS-5 co-culture ([2]; HS-5 co-culture, 5 donors tested, mean EC50 not reported) | clinical efficacy in CLL [3] | apoptosis observed in all CLL samples tested [1] [%] | average maximal proportion of apoptotic cells [1] [%] | dose-responsive effect in inducing apoptosis ([1]; primary CLL cells, single agent)
1 | 27.2 ± 11.3 | CC#CC(=O)N1CC[C@@H](n2c(=O)n(-c3ccc(Oc4ccccc4)cc3)c3c(N)ncnc32)C1 [Compound A1, 6-amino-9-[(3R)-1-(2-butynoyl)-3-pyrrolidinyl]-7-(4-phenoxyphenyl)-7,9-dihydro-8H-purin-8-one] | 21.1 | 30.0 | 67.3 | 10.4 | 14.1 | 20.0 | 10.1 | 45.5 | generally not increased above background in 3/5 donors tested | – | – | – | –
2 | – | CC1(C)CCC(CN2CCN(c3ccc(C(=O)NS(=O)(=O)c4ccc(NCC5CCOCC5)c([N+](=O)[O-])c4)c(Oc4cnc5[nH]ccc5c4)c3)CC2)=C(c2ccc(Cl)cc2)C1 [Compound B1, 4-[4-[[2-(4-chlorophenyl)-4,4-dimethyl-1-cyclohexen-1-yl]methyl]-1-piperazinyl]-N-[[3-nitro-4-[[(tetrahydro-2H-pyran-4-yl)methyl]amino]phenyl]sulfonyl]-2-(1H-pyrrolo[2,3-b]pyridin-5-yloxy)-benzamide] | – | 66.1 | 87.3 | 38.3 | 31.6 | 35.8 | 30.8 | 80.8 | – | clinical efficacy in CLL | > 60 | 91.4 | –
3 | – | CCC(Nc1ncnc2[nH]cnc12)c1nc2cccc(F)c2c(=O)n1-c1ccccc1 (stereo not shown) [Compound C1, 2-(1-((9H-Purin-6-yl)amino)propyl)-5-fluoro-3-phenylquinazolin-4(3H)-one] | – | 50.8 | 60.1 | 12.1 | 15.0 | 17.6 | 15.2 | 30.6 | – | – | – | 23 | dose-responsive effect
4 | – | c1cn2cc(-c3ccc4cn[nH]c4c3)nc(Nc3ccc(N4CCOCC4)cc3)c2n1 [Compound D1, 6-(1H-indazol-6-yl)-N-(4-morpholinophenyl)imidazo[1,2-a]pyrazin-8-amine] | – | – | – | – | – | – | – | – | – | clinical efficacy in CLL | > 60 | – | –
